Patent US20260184687A1, “DIHYDROINDENE DERIVATIVES AS MALT1 INHIBITORS” (C4X Discovery Limited, priority 2022, published 2026)

Key:
[1] = target: MALT1-GS-Ub (6-His-hMALT-1 residues 339-715 fused to ubiquitin) (Homo sapiens, UniProt Q9UDY8); experiment: biochemical;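 also: in vitro MALT1 protease assay: enzyme preincubated with compound 30 min at room temperature, then cleavage of fluorogenic Ac-LVSR-AMC substrate (100 µM) followed by fluorescence every 15 min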
Procedure: (§1) MALT1 protease activity was assessed in vitro by measuring the cleavage of a fluorogenic tetrapeptide substrate.
A protein (MALT1-GS-Ub) comprising 6-His-hMALT-1 (residues 339-715), fused to ubiquitin with an 8×GGS linker, was expressed in E. coli, and purified using chitin resin to remove contaminants followed by affinity chromatography purification and size-exclusion chromatography, according to standard protocols.
Briefly, MALT1-GS-Ub (300-600 nM) was incubated with substrate (Ac-LVSR-AMC, 100 μM) in reaction buffer comprising 50 mM HEPES (pH7.0), 25 mM KCl, 0.1% (v/v) CHAPS and 1 mM TCEP.
(§2) Test compounds dissolved in DMSO were dispensed into assay plates (384-well, black, shallow ProxiPlates). 7 μl enzyme solution was added and incubated at room temperature for 30 minutes to allow compound binding to occur. 2 μl substrate solution was then added and the fluorescence (excitation 360 nm, emission 460 nm) read every 15 minutes using a suitable plate reader. Final assay DMSO concentration was 1%. […] IC50 values were calculated using GraphPad Prism using a 4-parameter non-linear regression curve fit.

[2] = test system: IL-2 release from stimulated Jurkat cells; experiment: Human IL-2 Release Phenotypic Assay (Assay 3); assay type: cell-based; details: Jurkat cells (clone E6-1), 200 ng/mL PMA + 300 ng/mL ionomycin, IL-2 by ELISA
Summary of the method: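 Jurkat E6-1 cells in RPMI1640/10% FBS were seeded at 50 000 cells/well and incubated overnight at 37° C. Half-log compound dilutions (0.5% final DMSO) were added for 30 min, then cells were stimulated with 200 ng/mL PMA + 300 ng/mL ionomycin for 48 h. IC50 came from a 4-parameter non-linear regression fit.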

[3] = target: T1, FL hMALT1 enzyme (Homo sapiens, UniProt Q9UDY8); experiment: biochemical;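 also: Cell-free protease assay: enzyme preincubated with compound 30 min at room temperature, then cleavage of fluorogenic Ac-LVSR-AMC substrate (100 µM) tracked by fluorescence (ex 360/em 460 nm)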
T1 sequence (Q9UDY8 1-824): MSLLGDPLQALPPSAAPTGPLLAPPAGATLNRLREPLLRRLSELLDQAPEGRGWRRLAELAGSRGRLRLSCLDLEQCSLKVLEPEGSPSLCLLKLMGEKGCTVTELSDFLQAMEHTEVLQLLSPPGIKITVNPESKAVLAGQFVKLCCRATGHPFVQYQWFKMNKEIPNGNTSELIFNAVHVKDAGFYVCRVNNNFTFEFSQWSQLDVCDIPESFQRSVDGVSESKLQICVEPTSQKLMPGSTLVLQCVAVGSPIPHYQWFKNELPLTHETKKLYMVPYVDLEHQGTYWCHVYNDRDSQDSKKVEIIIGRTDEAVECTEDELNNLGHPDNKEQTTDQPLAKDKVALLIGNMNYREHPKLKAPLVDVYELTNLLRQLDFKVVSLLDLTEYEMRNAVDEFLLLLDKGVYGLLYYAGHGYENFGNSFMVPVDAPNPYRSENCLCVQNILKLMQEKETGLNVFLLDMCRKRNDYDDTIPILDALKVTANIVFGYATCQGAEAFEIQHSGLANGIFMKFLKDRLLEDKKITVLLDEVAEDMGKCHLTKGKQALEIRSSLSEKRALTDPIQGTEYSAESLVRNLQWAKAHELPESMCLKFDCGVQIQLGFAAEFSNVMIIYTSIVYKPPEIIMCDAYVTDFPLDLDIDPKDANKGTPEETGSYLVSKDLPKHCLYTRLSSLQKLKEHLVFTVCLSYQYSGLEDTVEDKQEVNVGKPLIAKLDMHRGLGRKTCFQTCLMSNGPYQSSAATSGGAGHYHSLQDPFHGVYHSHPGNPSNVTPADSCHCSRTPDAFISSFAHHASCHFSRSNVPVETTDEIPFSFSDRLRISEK
Procedure: as §1
For a higher sensitivity assay, commercially available FL hMALT1 enzyme (Abcam, 1-10 nM) was incubated with substrate (Ac-LVSR-AMC, 100 μM) in reaction buffer comprising 50 mM HEPES (pH7.0), 25 mM KCl, 0.1% (v/v) CHAPS, 1 mM TCEP and 0.7 M sodium citrate.
as §2

Sequence of MALT1-GS-Ub (6-His-hMALT-1 residues 339-715 fused to ubiquitin) (Q9UDY8 with tags, fused parts or gaps limits assumed): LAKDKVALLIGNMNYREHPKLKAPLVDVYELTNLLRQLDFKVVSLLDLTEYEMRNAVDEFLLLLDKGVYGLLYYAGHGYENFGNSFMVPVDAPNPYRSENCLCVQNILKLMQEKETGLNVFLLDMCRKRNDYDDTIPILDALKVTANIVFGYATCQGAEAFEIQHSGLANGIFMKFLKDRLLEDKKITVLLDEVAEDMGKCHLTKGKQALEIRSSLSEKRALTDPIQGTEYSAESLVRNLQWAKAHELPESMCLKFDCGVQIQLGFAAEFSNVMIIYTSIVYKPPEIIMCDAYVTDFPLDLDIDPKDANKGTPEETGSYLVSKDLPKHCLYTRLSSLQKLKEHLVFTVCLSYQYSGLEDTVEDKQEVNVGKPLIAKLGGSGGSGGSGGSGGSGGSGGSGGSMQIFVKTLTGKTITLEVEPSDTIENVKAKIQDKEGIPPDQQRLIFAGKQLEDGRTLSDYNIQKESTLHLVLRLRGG

Structure (SMILES) | IC50 [1] [nM] | IC50 ([2]; Homo sapiens, Jurkat, 48 h) [nM] | IC50 [3] [nM] | IC50 ([2]; 48 hours) [nM]
CN(C(=O)[C@H]1CCC(=O)NC1)[C@@H](c1ccc(NC2Cc3ccc(Cl)c(Cl)c3C2)cn1)C(F)(F)F (single isomer, unassigned) [Example 321] |  | 86 | 25 | 
CN(C(=O)C12CC(NS(C)(=O)=O)(C1)C2)[C@@H](c1ccc(NC2Cc3ccc(Cl)c(Cl)c3C2)cn1)C(F)(F)F (single isomer, unassigned) [Example 323] |  | 100 | 14 | 
CN(C(=O)[C@@H]1CNC(=O)C1)[C@@H](c1ccc(NC2Cc3ccc(Cl)c(C4CC4)c3C2)cn1)C(F)(F)F (single isomer, unassigned) [Example 328] |  | 240 | 18 | 
CN(C(=O)[C@H]1CCC(=O)NC1)[C@@H](c1ccc(NC2Cc3ccc(Cl)c(C4CC4)c3C2)cn1)C(F)(F)F (single isomer, unassigned) [Example 330] |  | 220 | 16 | 
CN(C(=O)C1CCS(=O)(=O)CC1)[C@@H](c1ccc(NC2Cc3ccc(Cl)c(F)c3C2)nc1)C(F)(F)F (single isomer, unassigned) [Example 332] |  | 47 | 14 | 
CNC(=O)N1CC(C(=O)N(C)[C@@H](c2ccc(NC3Cc4ccc(Cl)c(Cl)c4C3)cn2)C(F)(F)F)C1 (single isomer, unassigned) [Example 335] |  | 42 | 14 | 
CN(C(=O)[C@H]1CCC(=O)NC1)[C@@H](c1ccc(NC2Cc3ccc(Cl)c(F)c3C2)cn1)C(F)(F)F (single isomer, unassigned) [Example 337] |  | 170 | 51 | 
CN(C(=O)[C@H]1CNC(=O)C1)[C@@H](c1ccc(NC2Cc3ccc(Cl)c(F)c3C2)nc1)C(F)(F)F (single isomer, unassigned) [Example 339] |  | 66 | 24 | 
CN(C(=O)C1CC2(CCC(=O)N2)C1)[C@@H](c1ccc(NC2Cc3ccc(Cl)c(Cl)c3C2)cn1)C(F)(F)F (single isomer, unassigned) [Example 341] |  |  | 15 | 100
CN(C(=O)C1CC2(CCC(=O)N2)C1)[C@@H](c1ccc(NC2Cc3ccc(Cl)c(Cl)c3C2)cn1)C(F)(F)F (single isomer, unassigned) [Example 343] |  |  | 77 | 360
CN(C(=O)[C@H]1CNC(=O)C1)[C@@H](c1ccc(NC2Cc3ccc(Cl)c(Cl)c3C2)nc1)C(F)(F)F (single isomer, unassigned) [Example 347] |  | 41 | 16 | 
CN(C(=O)CC#N)[C@@H](c1ccc(NC2Cc3ccc(Cl)c(Cl)c3C2)cn1)C(F)(F)F (single isomer, unassigned) [Example 350] |  | 230 | 61 | 
CN(C(=O)C1CN(C(=O)C2CCOC2)C1)[C@@H](c1ccc(NC2Cc3ccc(Cl)c(Cl)c3C2)cn1)C(F)(F)F (single isomer, unassigned) [Example 352] |  | 110 | 46 | 
CN(C(=O)C1CN(C(=O)C2CCOC2)C1)[C@@H](c1ccc(NC2Cc3ccc(Cl)c(Cl)c3C2)cn1)C(F)(F)F (single isomer, unassigned) [Example 353] |  |  | 33 | 63
CN(C(=O)C1CCS(=O)(=O)C1)[C@@H](c1ccc(NC2Cc3ccc(Cl)c(Cl)c3C2)cn1)C(F)(F)F (single isomer, unassigned) [Example 358] |  |  | 55 | 250
CN(C(=O)C1CCS(=O)(=O)C1)[C@@H](c1ccc(NC2Cc3ccc(Cl)c(Cl)c3C2)cn1)C(F)(F)F (single isomer, unassigned) [Example 360] |  |  | 30 | 110
CN(C(=O)C1CN(C(=O)C2COC2)C1)[C@@H](c1ccc(NC2Cc3ccc(Cl)c(F)c3C2)cn1)C(F)(F)F (single isomer, unassigned) [Example 371] |  | 220 | 75 | 
CC(=O)N1CC(C(=O)N(C)[C@@H](c2ccc(NC3Cc4ccc(Cl)c(Cl)c4C3)cn2)C(F)(F)F)C1 (single isomer, unassigned) [Example 377] |  | 130 | 40 | 

More lines, now with the values ahead:

IC50 [1] [nM] | IC50 ([2]; Homo sapiens, Jurkat, 48 h) [nM] | IC50 [3] [nM] | IC50 ([2]; 48 hours) [nM] | Structure (SMILES)
930 |  |  |  | CN(C(=O)c1cnon1)[C@@H](c1ccc(NC2Cc3ccccc3C2(C)C)cc1)C(F)(F)F (single isomer, unassigned) [Example 51]
 | 35 | 9 |  | CN(C(=O)C1CCN(S(C)(=O)=O)CC1)[C@@H](c1ccc(NC2Cc3ccc(Cl)c(Cl)c3C2)cn1)C(F)(F)F (single isomer, unassigned) [Example 325]
 | 130 | 19 |  | Cc1c(Cl)ccc2c1CC(Nc1ccc([C@H](N(C)C(=O)C3CCS(=O)(=O)CC3)C(F)(F)F)nc1)C2 (single isomer, unassigned) [Example 372]
 | 230 | 50 |  | CN(C(=O)[C@H]1C[C@H](O)C1)[C@@H](c1ccc(NC2Cc3ccc(Cl)c(F)c3C2)cn1)C(F)(F)F (single isomer, unassigned) [Example 374]
 | 450 | 87 |  | CN(C(=O)[C@@H]1CC(=O)N1)[C@@H](c1ccc(N[C@H]2Cc3ccccc3C2(C)C)cn1)C(F)(F)F [Example 165, (S)—N—((S)-1-(5-(((S)-1,1-Dimethyl-2,3-dihydro-1H-inden-2-yl)amino)pyridin-2-yl)-2,2,2-trifluoroethyl)-N-methyl-4-oxoazetidine-2-carboxamide]
 | 490 | 71 |  | CC(=O)N[C@H]1CC[C@@H](C(=O)N(C)[C@@H](c2ccc(N[C@H]3Cc4ccccc4C3(C)C)cn2)C(F)(F)F)C1 [Example 172, (1R,3S)-3-Acetamido-N—((S)-1-(5-(((S)-1,1-dimethyl-2,3-dihydro-1H-inden-2-yl)amino)pyridin-2-yl)-2,2,2-trifluoroethyl)-N-methylcyclopentane-1-carboxamide]
 | 300 | 42 |  | CNC(=O)C12CC(C(=O)N(C)[C@@H](c3ccc(N[C@H]4Cc5ccccc5C4(C)C)cn3)C(F)(F)F)(C1)C2 [Example 185, N^1—((S)-1-(5-(((S)-1,1-Dimethyl-2,3-dihydro-1H-inden-2-yl)amino)pyridin-2-yl)-2,2,2-trifluoroethyl)-N^1,N^3-dimethylbicyclo[1.1.1]pentane-1,3-dicarboxamide]
 | 450 | 94 |  | CC(=O)N[C@@H]1CC[C@H](C(=O)N(C)[C@@H](c2ccc(N[C@H]3Cc4ccccc4C3(C)C)cn2)C(F)(F)F)C1 [Example 187, (1,3-cis)-3-Acetamido-N—((S)-1-(5-(((S)-1,1-dimethyl-2,3-dihydro-1H-inden-2-yl)amino)pyridin-2-yl)-2,2,2-trifluoroethyl)-N-methylcyclobutane-1-carboxamide]
 | 230 | 21 |  | CN(C(=O)[C@H]1CC[C@@H](NS(C)(=O)=O)C1)[C@@H](c1ccc(N[C@H]2Cc3ccccc3C2(C)C)cn1)C(F)(F)F [Example 221, (1S,3R)—N—((S)-1-(5-(((S)-1,1-Dimethyl-2,3-dihydro-1H-inden-2-yl)amino)pyridin-2-yl)-2,2,2-trifluoroethyl)-N-methyl-3-(methylsulfonamido)cyclopentane-1-carboxamide]
 | 170 | 20 |  | CN(C(=O)C12CC(NS(C)(=O)=O)(C1)C2)[C@@H](c1ccc(N[C@H]2Cc3ccccc3C2(C)C)cn1)C(F)(F)F [Example 233, N—((S)-1-(5-(((S)-1,1-dimethyl-2,3-dihydro-1H-inden-2-yl)amino)pyridin-2-yl)-2,2,2-trifluoroethyl)-N-methyl-3-(methylsulfonamido)bicyclo[1.1.1]pentane-1-carboxamide]
 | 360 | 170 |  | CN(C(=O)[C@H]1CCC(=O)NC1)[C@@H](c1ccc(N[C@H]2Cc3ccc(Cl)cc3C2)cn1)C(F)(F)F [Example 297, (S)—N—((S)-1-(5-(((S)-5-Chloro-2,3-dihydro-1H-inden-2-yl)amino)pyridin-2-yl)-2,2,2-trifluoroethyl)-N-methyl-6-oxopiperidine-3-carboxamide]
 | 430 | 94 |  | CN(C(=O)C12CC(NS(C)(=O)=O)(C1)C2)[C@@H](c1ccc(N[C@H]2Cc3ccc(Cl)cc3C2)cn1)C(F)(F)F [Example 299, N—((S)-1-(5-(((S)-5-Chloro-2,3-dihydro-1H-inden-2-yl)amino)pyridin-2-yl)-2,2,2-trifluoroethyl)-N-methyl-3-(methylsulfonamido)bicyclo[1.1.1]pentane-1-carboxamide]
